Measured values reported in patent US20160274087A1, “SCREENING ASSAY FOR AGENTS THAT INFLUENCE BETA CELL NUMBER AND/OR PHENOTYPE” (VRIJE UNIVERSITEIT BRUSSEL, priority 2013, published 2016).

Assays:
[1] = biological target: T1, mineralocorticoid receptor (MR) (Homo sapiens, UniProt P08235); settings: cited from earlier work
T1 sequence (P08235 1-984): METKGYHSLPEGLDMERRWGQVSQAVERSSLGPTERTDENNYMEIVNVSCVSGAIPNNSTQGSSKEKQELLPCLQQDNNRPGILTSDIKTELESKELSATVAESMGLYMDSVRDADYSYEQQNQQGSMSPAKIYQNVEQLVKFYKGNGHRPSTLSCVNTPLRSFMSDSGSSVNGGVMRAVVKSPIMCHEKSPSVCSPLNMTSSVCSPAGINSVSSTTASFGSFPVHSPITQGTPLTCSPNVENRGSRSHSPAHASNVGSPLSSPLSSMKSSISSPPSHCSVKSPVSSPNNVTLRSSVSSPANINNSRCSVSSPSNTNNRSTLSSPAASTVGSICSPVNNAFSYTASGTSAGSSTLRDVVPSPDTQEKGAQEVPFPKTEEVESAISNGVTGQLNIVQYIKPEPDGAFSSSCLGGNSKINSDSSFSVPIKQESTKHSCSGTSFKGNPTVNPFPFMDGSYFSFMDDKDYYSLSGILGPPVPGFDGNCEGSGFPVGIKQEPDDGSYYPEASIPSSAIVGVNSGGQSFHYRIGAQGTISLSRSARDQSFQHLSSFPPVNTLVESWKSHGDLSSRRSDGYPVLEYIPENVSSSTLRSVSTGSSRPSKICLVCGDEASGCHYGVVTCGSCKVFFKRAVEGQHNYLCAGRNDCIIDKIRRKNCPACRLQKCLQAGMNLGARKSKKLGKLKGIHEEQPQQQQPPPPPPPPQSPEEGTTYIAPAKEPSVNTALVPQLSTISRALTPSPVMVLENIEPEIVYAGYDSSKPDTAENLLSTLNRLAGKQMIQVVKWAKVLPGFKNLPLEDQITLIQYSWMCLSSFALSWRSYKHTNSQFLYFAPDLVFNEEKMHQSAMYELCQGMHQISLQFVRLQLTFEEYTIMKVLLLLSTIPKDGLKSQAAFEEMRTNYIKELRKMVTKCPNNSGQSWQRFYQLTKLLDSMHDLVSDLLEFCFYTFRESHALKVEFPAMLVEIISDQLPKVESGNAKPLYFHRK

[2] = biological target: T2, glucocorticoid receptor (GR) (Homo sapiens, UniProt P04150); settings: cited from earlier work
T2 sequence (P04150 1-777): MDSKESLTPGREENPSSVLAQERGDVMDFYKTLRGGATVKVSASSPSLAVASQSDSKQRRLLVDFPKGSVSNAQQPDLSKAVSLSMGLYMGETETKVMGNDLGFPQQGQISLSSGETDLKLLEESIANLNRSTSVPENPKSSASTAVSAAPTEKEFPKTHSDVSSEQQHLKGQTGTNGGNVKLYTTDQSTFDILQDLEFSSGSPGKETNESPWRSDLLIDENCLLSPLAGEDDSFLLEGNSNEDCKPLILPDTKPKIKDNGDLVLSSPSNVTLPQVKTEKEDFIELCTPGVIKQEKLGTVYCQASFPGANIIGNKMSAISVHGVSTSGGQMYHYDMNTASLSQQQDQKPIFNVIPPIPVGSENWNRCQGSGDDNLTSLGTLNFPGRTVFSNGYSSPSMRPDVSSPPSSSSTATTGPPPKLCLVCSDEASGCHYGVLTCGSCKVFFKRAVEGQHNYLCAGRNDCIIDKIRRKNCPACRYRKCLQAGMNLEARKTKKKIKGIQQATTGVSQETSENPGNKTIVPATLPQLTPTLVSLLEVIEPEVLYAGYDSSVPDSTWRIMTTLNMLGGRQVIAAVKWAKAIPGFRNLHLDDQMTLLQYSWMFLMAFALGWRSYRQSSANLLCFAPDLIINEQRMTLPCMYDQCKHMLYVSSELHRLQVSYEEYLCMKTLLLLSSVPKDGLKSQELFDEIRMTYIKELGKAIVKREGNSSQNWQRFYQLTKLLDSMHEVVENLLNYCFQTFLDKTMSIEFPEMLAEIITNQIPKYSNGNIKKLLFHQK

alloxan-diabetic mice = test: Implantation of in vitro expanded beta cells in alloxan-diabetic mice; type: in vivo
Method: FIG. 8. Alloxan-induced diabetes in mice can be reversed with implantation of in vitro-generated beta cells. Sorted beta cells were cultured in control medium or in the presence of HC up to day 9 and then switched to basal condition for the last six days of culture. IPGTT was used to determine glucose clearance rate. Glucose was administered (3 g/kg body weight) by in intraperitoneal injection into a 2 h-fasted animals and blood glucose levels were measured at the indicated time points during the following 120-min. Data are from animals transplanted with control cells (black triangles; n=3), in vitro expanded cells (black squares; n=5) and normal control animals (inverted triangles; n=2).
In this respect was it relevant to adjust culture conditions so that the expanded beta cell mass was not degranulated. We compared the in vivo function and hormone reserve of implants that were formed by equal numbers of beta cells collected from either control or HC-treated preparations, HC being withdrawn for the last 6 days (as in Table 7). At the end of 15 days culture, cell yield after HC was 54 to 110 percent higher than in control (paired cultures from three different islet isolation experiments), thus allowing preparation of more grafts per experiment. Respective grafts contained a similar number of beta cells and a similar total hormone content (for the three experiments between 10 to 15 μg insulin per graft). […] Both also presented an equally rapid normalization of glycemia following an intraperitoneal glucose load with similar kinetics to normal control animals (FIG. 8).

rat beta cells = test: Cellular insulin content, insulin release and glucose-stimulated insulin secretion of cultured beta cells; type: cell-based; settings: for Insulin Content Day 15: HC
Method: Beta cells were FACS-purified from islet-cell enriched suspensions (Pipeleers et al., 1985) prepared from neonatal (2-3 days-old) and adolescent or adult (8 or 40-week-old, male) Wistar rats (Janvier Bioservices, France); their purity was, respectively 70-75% and over 90%. Sorted cells were counted in a hemocytometer, seeded (day 0) and cultured for up to 15 days in serum-free Ham's-F10 medium at 5, 10 or 20 mmol/l glucose, supplemented with 2 mmol/l L-glutamine, 50 μM 3-isobutyl-1-methylxanthine, 0.5% Albumax-I, penicillin (100 U/ml) and streptomycin (0.1 mg/ml). The 10 mmol/l glucose condition is known to maintain beta cell survival over 9-days (Ling et al., 1994; Ling and Pipeleers, 1994). Medium and cells were retrieved after selected culture periods and assayed for insulin content; data were expressed as a function of the number of living beta cells that was determined in parallel wells.

**Q.** For `C[C@]12CCC(=O)C=C1CC[C@@H]1[C@@H]2[C@@H](O)C[C@@]2(C)[C@H]1CC[C@]2(O)C(=O)CO` [Hydrocortisone, hydrocortisone], which “Relative Potencies MR” value [1] is on record?
**A.** Its value is 1.

**Q.** And the “Relative Potencies GR” value [2]?
**A.** The value was 1.

**Q.** And the “circulating C-peptide level at week 1 post-transplantation” value (alloxan-diabetic mice; HC group grafts, control 2.3±0.2)?
**A.** Its value is 2.4 ± 0.2 nM.

**Q.** And the “circulating C-peptide level at week 5 post-transplantation” value (alloxan-diabetic mice; HC group grafts, control 2.6±0.2)?
**A.** The value was 2.6 ± 0.4 nM.

**Q.** What about the “Insulin Content, Pancreas” value (alloxan-diabetic mice; animals transplanted with cells from proliferation condition (HC up to day 9, then control medium)) of the same compound?
**A.** Its value is 0.7 ± 0.2 μg/sample.

**Q.** And the “Insulin Content, Graft” value (alloxan-diabetic mice; animals transplanted with cells from proliferation condition (HC up to day 9, then control medium), post-transplantation week 4)?
**A.** The value was 7.2 ± 1.3 μg/sample.

**Q.** And the “correction of hyperglycemia after implantation” value (alloxan-diabetic mice; grafts of HC-treated beta cells in abdominal fat pad)?
**A.** Its value is “corrected hyperglycemia within one week”.

**Q.** What about the “Insulin Content Day 15” value (rat beta cells; 9 days, 6 days, control) of the same compound?
**A.** The value was 33.1 ± 2.9 ng/10^3 cells.

**Q.** What about the “Insulin Content Day 15” value (rat beta cells; 15 days, control 35.3 ± 3.6) of the same compound?
**A.** Its value is 9.3 ± 0.7 ng/10^3 cells.

**Q.** What about the “Insulin Content Day 9” value (rat beta cells; continuous HC, control 23.7 ± 0.9) of the same compound?
**A.** Its value is 14.0 ± 1.4 ng/10^3 cells.

**Q.** And the “loss of insulin content on day 9” value (rat beta cells; continuous incubation with HC)?
**A.** Its value is 56%.

**Q.** And the “loss of insulin content on day 15” value (rat beta cells; continuous incubation with HC)?
**A.** The value was “more than 70%”.
